Measured values from ChEMBL document CHEMBL4507273 (2021).
pKi: −log10 of the molar value.

How the values were obtained:
[1] = biological target: Ephrin type-B receptor 3 (Homo sapiens) (UniProt P54753); conditions: Compound concentration 1000.0 nM
[2] = biological target: Serine/threonine-protein kinase PAK 5 (Homo sapiens) (UniProt Q9P286); conditions: Compound concentration 1000.0 nM
[3] = biological target: Serine/threonine-protein kinase MARK2 (Homo sapiens) (UniProt Q7KZI7); conditions: Compound concentration 1000.0 nM
[4] = biological target: Muscle, skeletal receptor tyrosine-protein kinase (Homo sapiens) (UniProt O15146); conditions: Compound concentration 1000.0 nM
[5] = tested on: Hepatocyte growth factor receptor (Homo sapiens), P08581 [Y1235D]; conditions: Compound concentration 1000.0 nM
[6] = biological target: Microtubule-associated serine/threonine-protein kinase 1 (Homo sapiens) (UniProt Q9Y2H9); conditions: Compound concentration 1000.0 nM
[7] = biological target: Fibroblast growth factor receptor 3 (Homo sapiens) (UniProt P22607); conditions: Compound concentration 1000.0 nM
[8] = biological target: Serine/threonine-protein kinase 10 (Homo sapiens) (UniProt O94804); conditions: Compound concentration 1000.0 nM
Chain of Serine/threonine-protein kinase 10 (Homo sapiens) (O94804 whole entry, looked up): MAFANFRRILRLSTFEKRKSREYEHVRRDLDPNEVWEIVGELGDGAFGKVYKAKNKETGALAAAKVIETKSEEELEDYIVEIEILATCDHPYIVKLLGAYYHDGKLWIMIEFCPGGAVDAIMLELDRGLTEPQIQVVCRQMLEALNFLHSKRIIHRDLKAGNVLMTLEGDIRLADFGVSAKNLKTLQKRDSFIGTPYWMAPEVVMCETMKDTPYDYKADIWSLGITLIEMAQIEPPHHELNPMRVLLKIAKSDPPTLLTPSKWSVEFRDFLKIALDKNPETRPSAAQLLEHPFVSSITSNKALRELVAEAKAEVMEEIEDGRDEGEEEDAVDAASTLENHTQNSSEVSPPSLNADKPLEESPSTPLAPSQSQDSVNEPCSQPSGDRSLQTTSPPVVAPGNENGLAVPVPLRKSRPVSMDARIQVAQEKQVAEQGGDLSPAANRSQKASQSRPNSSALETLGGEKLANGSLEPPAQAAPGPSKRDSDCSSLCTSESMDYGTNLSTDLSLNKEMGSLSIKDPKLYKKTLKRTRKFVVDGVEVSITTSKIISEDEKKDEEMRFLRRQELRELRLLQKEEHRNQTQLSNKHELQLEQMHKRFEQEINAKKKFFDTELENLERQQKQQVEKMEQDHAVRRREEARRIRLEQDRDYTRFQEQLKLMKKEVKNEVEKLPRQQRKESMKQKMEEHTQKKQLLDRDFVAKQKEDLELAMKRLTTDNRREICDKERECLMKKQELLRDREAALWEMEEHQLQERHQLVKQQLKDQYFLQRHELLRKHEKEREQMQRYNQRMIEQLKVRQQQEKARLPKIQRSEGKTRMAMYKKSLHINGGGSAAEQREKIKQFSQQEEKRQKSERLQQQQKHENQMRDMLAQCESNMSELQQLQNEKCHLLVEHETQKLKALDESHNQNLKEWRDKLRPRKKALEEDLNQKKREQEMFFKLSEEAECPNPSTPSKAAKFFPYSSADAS

[9] = biological target: Tyrosine-protein kinase ABL1 (Homo sapiens) (UniProt P00519); conditions: Compound concentration 1000.0 nM
[10] = biological target: Serine/threonine-protein kinase NIM1 (Homo sapiens) (UniProt Q8IY84); conditions: Compound concentration 1000.0 nM
Chain of Serine/threonine-protein kinase NIM1 (Homo sapiens) (Q8IY84 whole entry): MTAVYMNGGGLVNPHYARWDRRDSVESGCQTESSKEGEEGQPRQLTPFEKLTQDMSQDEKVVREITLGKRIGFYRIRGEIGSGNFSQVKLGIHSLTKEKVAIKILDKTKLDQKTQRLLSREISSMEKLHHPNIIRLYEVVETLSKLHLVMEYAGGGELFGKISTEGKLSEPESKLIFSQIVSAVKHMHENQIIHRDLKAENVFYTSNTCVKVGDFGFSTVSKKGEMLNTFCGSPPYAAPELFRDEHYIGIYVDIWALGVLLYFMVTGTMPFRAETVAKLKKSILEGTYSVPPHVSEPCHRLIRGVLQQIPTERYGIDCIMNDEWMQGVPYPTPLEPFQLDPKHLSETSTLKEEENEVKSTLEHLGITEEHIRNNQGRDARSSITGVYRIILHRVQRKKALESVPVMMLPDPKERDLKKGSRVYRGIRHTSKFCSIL

[11] = tested on: Mast/stem cell growth factor receptor Kit (Homo sapiens), P10721 [V559D,T670I]; conditions: Compound concentration 1000.0 nM
Chain of Mast/stem cell growth factor receptor Kit (Homo sapiens), P10721 [V559D,T670I] (P10721 whole entry V559D/T670I): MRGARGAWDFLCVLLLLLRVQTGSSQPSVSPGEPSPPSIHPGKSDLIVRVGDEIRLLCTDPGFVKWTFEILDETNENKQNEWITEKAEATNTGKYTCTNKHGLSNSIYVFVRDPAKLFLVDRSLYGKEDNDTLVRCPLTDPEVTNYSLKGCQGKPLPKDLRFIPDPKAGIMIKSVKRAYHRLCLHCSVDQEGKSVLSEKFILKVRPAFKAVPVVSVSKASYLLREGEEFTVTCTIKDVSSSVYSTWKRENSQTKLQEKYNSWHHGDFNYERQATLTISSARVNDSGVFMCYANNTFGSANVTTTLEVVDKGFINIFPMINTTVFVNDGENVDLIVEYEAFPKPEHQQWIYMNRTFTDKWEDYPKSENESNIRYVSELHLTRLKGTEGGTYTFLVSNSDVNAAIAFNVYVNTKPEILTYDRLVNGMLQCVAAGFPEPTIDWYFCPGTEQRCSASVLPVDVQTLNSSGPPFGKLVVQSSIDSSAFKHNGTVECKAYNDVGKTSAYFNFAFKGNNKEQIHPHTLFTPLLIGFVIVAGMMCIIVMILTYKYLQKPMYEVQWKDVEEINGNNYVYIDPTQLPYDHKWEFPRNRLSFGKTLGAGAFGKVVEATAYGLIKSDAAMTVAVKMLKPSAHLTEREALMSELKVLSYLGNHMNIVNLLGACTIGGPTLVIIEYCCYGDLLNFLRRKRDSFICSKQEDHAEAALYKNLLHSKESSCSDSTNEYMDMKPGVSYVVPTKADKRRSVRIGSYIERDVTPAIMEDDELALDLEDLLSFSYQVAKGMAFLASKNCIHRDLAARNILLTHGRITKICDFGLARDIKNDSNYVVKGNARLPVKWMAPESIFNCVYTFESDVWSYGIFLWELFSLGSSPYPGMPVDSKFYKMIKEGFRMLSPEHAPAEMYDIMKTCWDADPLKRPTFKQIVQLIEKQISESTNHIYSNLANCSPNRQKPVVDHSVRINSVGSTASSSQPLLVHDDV

[12] = biological target: Ephrin type-A receptor 4 (Homo sapiens) (UniProt P54764); conditions: Compound concentration 1000.0 nM
[13] = biological target: Histamine H3 receptor (Homo sapiens) (UniProt Q9Y5N1); conditions: Compound concentration 10.0 uM
[14] = biological target: Vascular endothelial growth factor receptor 2 (Homo sapiens) (UniProt P35968); conditions: Compound concentration 1000.0 nM
[15] = biological target: 5'-AMP-activated protein kinase catalytic subunit alpha-2 (Homo sapiens) (UniProt P54646); conditions: Compound concentration 1000.0 nM
[16] = biological target: Serine/threonine-protein kinase 17B (Homo sapiens) (UniProt O94768); conditions: Compound concentration 1000.0 nM
[17] = biological target: 5-hydroxytryptamine receptor 1E (Homo sapiens) (UniProt P28566); conditions: Compound concentration 10.0 uM
[18] = tested on: Tyrosine-protein kinase ABL1 (Homo sapiens), P00519 [T315I]; conditions: Compound concentration 1000.0 nM
[19] = tested on: Mast/stem cell growth factor receptor Kit (Homo sapiens), P10721 [V559D,V654A]; conditions: Compound concentration 1000.0 nM
Chain of Mast/stem cell growth factor receptor Kit (Homo sapiens), P10721 [V559D,V654A] (P10721 whole entry V559D/V654A): as the sequence (P10721 whole entry V559D/T670I) above, with V654A, I670T counted along it

[20] = tested on: Epidermal growth factor receptor (Homo sapiens), P00533 [T790M]; conditions: Compound concentration 1000.0 nM
[21] = biological target: Mitotic checkpoint serine/threonine-protein kinase BUB1 (Homo sapiens) (UniProt O43683); conditions: Compound concentration 1000.0 nM
[22] = biological target: STE20/SPS1-related proline-alanine-rich protein kinase (Homo sapiens) (UniProt Q9UEW8); conditions: Compound concentration 1000.0 nM
[23] = biological target: Tyrosine-protein kinase BTK (Homo sapiens) (UniProt Q06187); conditions: Compound concentration 1000.0 nM
[24] = biological target: NT-3 growth factor receptor (Homo sapiens) (UniProt Q16288); conditions: Compound concentration 1000.0 nM
[25] = biological target: 5-hydroxytryptamine receptor 2B (Homo sapiens, UniProt P41595); conditions: Compound concentration 10.0 uM
[26] = biological target: Receptor tyrosine-protein kinase erbB-2 (Homo sapiens) (UniProt P04626); conditions: Compound concentration 1000.0 nM
[27] = biological target: Activin receptor type-1B (Homo sapiens) (UniProt P36896); conditions: Compound concentration 1000.0 nM
Chain of Activin receptor type-1B (Homo sapiens) (P36896 whole entry): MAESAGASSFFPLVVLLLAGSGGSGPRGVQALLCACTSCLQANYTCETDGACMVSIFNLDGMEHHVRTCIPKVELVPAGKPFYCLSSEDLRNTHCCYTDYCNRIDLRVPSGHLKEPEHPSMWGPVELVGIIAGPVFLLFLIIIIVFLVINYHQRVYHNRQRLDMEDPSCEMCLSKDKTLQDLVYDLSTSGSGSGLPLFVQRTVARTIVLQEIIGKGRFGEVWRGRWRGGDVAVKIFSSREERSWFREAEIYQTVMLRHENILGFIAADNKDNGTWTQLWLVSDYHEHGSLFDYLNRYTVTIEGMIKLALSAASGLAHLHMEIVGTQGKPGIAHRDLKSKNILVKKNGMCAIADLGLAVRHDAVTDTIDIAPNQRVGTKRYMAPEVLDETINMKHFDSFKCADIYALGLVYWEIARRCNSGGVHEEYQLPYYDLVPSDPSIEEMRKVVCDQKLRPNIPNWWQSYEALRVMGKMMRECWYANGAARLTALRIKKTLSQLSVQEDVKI

[28] = biological target: Aurora kinase C (Homo sapiens) (UniProt Q9UQB9); conditions: Compound concentration 1000.0 nM
Chain of Aurora kinase C (Homo sapiens) (Q9UQB9 whole entry): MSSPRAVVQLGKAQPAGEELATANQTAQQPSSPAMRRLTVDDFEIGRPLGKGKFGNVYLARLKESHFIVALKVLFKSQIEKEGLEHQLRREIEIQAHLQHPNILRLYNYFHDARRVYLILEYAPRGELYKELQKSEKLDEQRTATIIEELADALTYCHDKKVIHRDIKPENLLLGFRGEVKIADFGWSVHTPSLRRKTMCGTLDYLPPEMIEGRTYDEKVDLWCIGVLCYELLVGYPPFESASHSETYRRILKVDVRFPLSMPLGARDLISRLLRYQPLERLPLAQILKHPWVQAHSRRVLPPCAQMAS

[29] = biological target: Interleukin-1 receptor-associated kinase 3 (Homo sapiens) (UniProt Q9Y616); conditions: Compound concentration 1000.0 nM
[30] = tested on: Tyrosine-protein kinase ABL1 (Homo sapiens), P00519 [Q252H]; conditions: Compound concentration 1000.0 nM
[31] = biological target: Dual specificity mitogen-activated protein kinase kinase 4 (Homo sapiens) (UniProt P45985); conditions: Compound concentration 1000.0 nM
[32] = biological target: Serine/threonine-protein kinase ULK2 (Homo sapiens) (UniProt Q8IYT8); conditions: Compound concentration 1000.0 nM
[33] = biological target: Epidermal growth factor receptor (Homo sapiens, UniProt P00533); conditions: Compound concentration 1000.0 nM
[34] = biological target: Serine/threonine-protein kinase WNK3 (Homo sapiens) (UniProt Q9BYP7); conditions: Compound concentration 1000.0 nM
[35] = tested on: Tyrosine-protein kinase ABL1 (Homo sapiens), P00519 [Y253F]; conditions: Compound concentration 1000.0 nM
[36] = biological target: Angiopoietin-1 receptor (Homo sapiens) (UniProt Q02763); conditions: Compound concentration 1000.0 nM
[37] = biological target: Tyrosine-protein kinase CSK (Homo sapiens) (UniProt P41240); conditions: Compound concentration 1000.0 nM
Chain of Tyrosine-protein kinase CSK (Homo sapiens) (P41240 2-450 limits assumed): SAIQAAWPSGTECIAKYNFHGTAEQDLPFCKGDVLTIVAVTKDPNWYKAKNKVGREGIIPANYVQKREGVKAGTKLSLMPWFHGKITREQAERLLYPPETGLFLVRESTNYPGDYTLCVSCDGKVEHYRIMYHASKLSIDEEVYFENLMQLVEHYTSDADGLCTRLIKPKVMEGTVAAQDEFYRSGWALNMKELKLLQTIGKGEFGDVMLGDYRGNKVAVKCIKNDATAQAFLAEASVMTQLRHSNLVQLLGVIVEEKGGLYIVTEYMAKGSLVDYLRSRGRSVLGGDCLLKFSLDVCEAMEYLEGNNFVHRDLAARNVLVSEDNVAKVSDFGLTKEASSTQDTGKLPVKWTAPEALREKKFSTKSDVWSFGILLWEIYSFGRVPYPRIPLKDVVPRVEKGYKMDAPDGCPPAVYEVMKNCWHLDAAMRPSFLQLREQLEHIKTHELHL

[38] = biological target: T1, Testis-specific serine/threonine-protein kinase 1 (Homo sapiens) (UniProt Q9BXA7); conditions: Compound concentration 1000.0 nM
T1 sequence (whole entry): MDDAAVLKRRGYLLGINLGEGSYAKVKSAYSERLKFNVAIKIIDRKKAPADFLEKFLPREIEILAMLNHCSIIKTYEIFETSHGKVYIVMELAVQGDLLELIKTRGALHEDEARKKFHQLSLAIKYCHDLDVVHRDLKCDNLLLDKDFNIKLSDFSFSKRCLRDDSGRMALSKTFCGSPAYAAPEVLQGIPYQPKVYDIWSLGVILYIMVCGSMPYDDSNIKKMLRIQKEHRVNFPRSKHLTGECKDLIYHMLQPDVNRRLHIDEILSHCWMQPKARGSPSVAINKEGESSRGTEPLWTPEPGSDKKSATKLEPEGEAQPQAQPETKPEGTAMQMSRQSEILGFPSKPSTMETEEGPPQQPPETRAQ

[39] = biological target: Vascular endothelial growth factor receptor 1 (Homo sapiens) (UniProt P17948); conditions: Compound concentration 1000.0 nM
[40] = biological target: 5-hydroxytryptamine receptor 5A (Homo sapiens, UniProt P47898); assay: GPCRScan assay: inhibition of 5-HT5A; parameters: radioligand conc. used [nm] 2.0 - 3.3, parental cells Flp-In CHO; conditions: for pKi: read-out: Ki; for Ki: read-out: pKi (converted)
Chain of 5-hydroxytryptamine receptor 5A (P47898 whole entry): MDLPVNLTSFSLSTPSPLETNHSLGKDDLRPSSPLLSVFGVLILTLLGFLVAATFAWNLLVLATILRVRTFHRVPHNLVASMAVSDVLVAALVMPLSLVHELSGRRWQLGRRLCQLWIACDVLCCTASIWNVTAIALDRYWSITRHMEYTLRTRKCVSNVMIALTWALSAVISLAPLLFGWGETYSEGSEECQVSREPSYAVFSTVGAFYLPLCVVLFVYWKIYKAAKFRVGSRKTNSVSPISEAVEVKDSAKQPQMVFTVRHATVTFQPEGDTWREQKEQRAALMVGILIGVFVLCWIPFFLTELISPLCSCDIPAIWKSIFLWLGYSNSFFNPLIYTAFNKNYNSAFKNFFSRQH

Chain of Ephrin type-B receptor 3 (Homo sapiens) (P54753 whole entry): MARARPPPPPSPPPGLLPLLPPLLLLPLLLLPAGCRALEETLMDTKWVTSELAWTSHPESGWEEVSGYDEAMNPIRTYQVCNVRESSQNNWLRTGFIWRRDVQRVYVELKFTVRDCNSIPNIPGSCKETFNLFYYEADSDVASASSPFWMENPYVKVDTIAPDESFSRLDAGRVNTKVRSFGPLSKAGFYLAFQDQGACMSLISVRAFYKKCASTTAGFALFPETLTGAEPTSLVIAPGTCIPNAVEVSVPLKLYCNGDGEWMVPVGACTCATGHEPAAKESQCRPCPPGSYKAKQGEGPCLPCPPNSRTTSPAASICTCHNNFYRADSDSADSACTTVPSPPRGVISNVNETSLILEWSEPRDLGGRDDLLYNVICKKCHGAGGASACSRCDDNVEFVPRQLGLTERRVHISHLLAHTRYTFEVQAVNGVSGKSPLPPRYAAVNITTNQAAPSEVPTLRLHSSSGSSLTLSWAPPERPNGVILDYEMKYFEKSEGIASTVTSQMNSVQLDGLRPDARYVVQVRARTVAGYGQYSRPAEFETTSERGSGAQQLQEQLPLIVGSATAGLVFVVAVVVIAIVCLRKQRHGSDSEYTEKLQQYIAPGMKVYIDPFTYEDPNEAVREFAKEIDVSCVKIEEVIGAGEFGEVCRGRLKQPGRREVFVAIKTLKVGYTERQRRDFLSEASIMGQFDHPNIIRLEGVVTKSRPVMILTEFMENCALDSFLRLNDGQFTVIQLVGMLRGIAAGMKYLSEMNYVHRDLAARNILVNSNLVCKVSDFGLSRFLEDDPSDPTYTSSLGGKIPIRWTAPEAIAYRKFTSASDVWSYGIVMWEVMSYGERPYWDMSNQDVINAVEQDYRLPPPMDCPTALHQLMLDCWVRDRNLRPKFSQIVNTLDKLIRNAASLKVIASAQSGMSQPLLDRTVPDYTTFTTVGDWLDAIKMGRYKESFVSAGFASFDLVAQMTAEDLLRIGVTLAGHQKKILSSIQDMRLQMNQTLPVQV

`CNCc1ccccc1-c1csc([C@H](C)Nc2nc(C)nc3cc(OC)c(OC)cc23)c1` [BAY-294] gave a residual activity [1] of 100%, a residual activity [2] of 100% and a residual activity [3] of 100%. For the same molecule, the residual activity [4] was 90%, the residual activity [5] was 98% and the residual activity [6] was 96%. For the same molecule, the residual activity [7] was 98%, the residual activity [8] was 100% and the residual activity [9] was 87%. For the same molecule, the residual activity [10] was 90%, the residual activity [11] was 100% and the residual activity [12] was 100%. For the same molecule, the inhibition [13] was 24.6%, the residual activity [14] was 91% and the residual activity [15] was 100%. It also gave a residual activity [16] of 100%, an inhibition [17] of 10.8% and a residual activity [18] of 95%. The residual activity [19] was 100%, the residual activity [20] was 76% and the residual activity [21] was 100%. For the same molecule, the residual activity [22] was 100%, the residual activity [23] was 89% and the residual activity [24] was 100%. The inhibition [25] was 97.3%, the residual activity [26] was 100% and the residual activity [27] was 100%. For the same molecule, the residual activity [28] was 94%, the residual activity [29] was 83% and the residual activity [30] was 84%. For the same molecule, the residual activity [31] was 100%, the residual activity [32] was 100% and the residual activity [33] was 100%. It also gave a residual activity [34] of 98%, a residual activity [35] of 94% and a residual activity [36] of 100%. It also gave a residual activity [37] of 100%, a residual activity [38] of 93% and a residual activity [39] of 91%. For the same molecule, the pKi [40] was 5.98 and the Ki [40] was 0.977 µM.

`CNCc1ccccc1-c1csc([C@@H](C)Nc2nc(C)nc3cc(OC)c(OC)cc23)c1` [BAY-293] was tested, and the residual activity [1] was 100%, the residual activity [2] was 95% and the residual activity [3] was 99%. It also gave a residual activity [4] of 93%, a residual activity [5] of 100% and a residual activity [6] of 76%. The residual activity [7] was 90%, the residual activity [8] was 95% and the residual activity [9] was 80%. For the same molecule, the residual activity [10] was 93%, the residual activity [11] was 80% and the residual activity [12] was 79%. For the same molecule, the inhibition [13] was 26.7%, the residual activity [14] was 93% and the residual activity [15] was 97%. The residual activity [16] was 92%, the inhibition [17] was 5.81% and the residual activity [18] was 100%. It also gave a residual activity [19] of 89%, a residual activity [20] of 68% and a residual activity [21] of 100%. It also gave a residual activity [22] of 100%, a residual activity [23] of 90% and a residual activity [24] of 88%. For the same molecule, the inhibition [25] was 86.9%, the residual activity [26] was 84% and the residual activity [27] was 91%. The residual activity [28] was 92%, the residual activity [29] was 75% and the residual activity [30] was 85%. It also gave a residual activity [31] of 86%, a residual activity [32] of 100% and a residual activity [33] of 90%. The residual activity [34] was 100%, the residual activity [35] was 94% and the residual activity [36] was 87%. The residual activity [37] was 100%, the residual activity [38] was 59% and the residual activity [39] was 87%. It also gave a pKi [40] of 5.59 and a Ki [40] of 2.14 µM.
